{"source": "patent US10702526B2", "about": "“Inhibitors of immune checkpoint modulators and related methods” (eFFECTOR Therapeutics, Inc., priority 2015, dated 2020)", "key": {"[1]": {"system": "T effector (CD3+/CD8+) and T regulatory (CD4+/FOXP3+) cells", "test": "TE:Treg ratio in tumor infiltrating lymphocytes of CT26 allograft tumors (flow cytometry)", "type": "in vivo, mouse", "details": "TILs after 4 days of treatment", "method": "Mice having established CT26 tumors (100-200 mm^3) were treated with compound 107, anti-PD1 antibody or a combination of compound 107 and anti-PD-1 antibody, as described in Example 4. After 4 days of treatment, the mice were euthanized and tumors were excised. A single cell suspension was generated by dissecting excised tumors into fine pieces with a razor blade, incubating with collagenase, hyaluronidase and DNAse I (Worthington Biochemical, Lakewood N.J.) in RPMI, incubating in 1× trypsin-EDTA, and finally passaging through a 70 micron cell strainer filter (BD Biosciences, San Jose Calif.). […] For samples assessed for CD45/CD3/CD8, cells were washed twice with flow buffer and incubated with fixation buffer for 10 minutes at 4° C. […] Samples assessed for CD45/CD4 were further processed for intracellular staining of FOXP3 using an anti-FOXP3 antibody (FOXP3-PE, BD Biosciences) and the FOXP3/Transcription Factor staining buffer set (eBiosciences, San Diego Calif.) following the manufacturer's protocol. […] Data were collected and analyzed using a BD Accuri C6 flow cytometer (BD Biosciences, San Jose Calif.). The ratio of TE to Treg cells was calculated by determining the percentage of CD3^+/CD8^+ cells present in the CD45^+ lymphocyte population and dividing by the percentage of CD4^+/FOXP3^+ present from the same population."}, "[2]": {"system": "PD-1 expression on human Pan-T cells", "test": "PD-1 expression on primary T cells activated with anti-CD3/anti-CD28 beads (flow cytometry)", "type": "cell-based", "method": "(§1) About 3×10^5 T cells were activated using anti-CD3/anti-CD28 magnetic beads as per manufacturer's protocol (Dynabeads®, Invitrogen, Carlsbad, Calif.). Briefly, a ratio of fresh primary T cells to beads used to activate the T cells was 1:1 (for every 80,000 T cells, 2 μl of beads were added). Test cells were treated simultaneously with various concentrations of MNK-specific inhibitor Compound 107 (0.01, 0.1, 1, 3 and 10 μM). After 48 hours, culture supernatants were harvested and examined via sandwich ELISA for the presence of IL-2 using human IL-2 ELISA DuoSet® (R&D Systems, Minneapolis, Minn.). […] After fixation, cells were washed twice with flow buffer and re-suspended in flow buffer and assessed for fluorescence using BD Accuri C6 cytometer. Data were analyzed using the C6 cytometer software (BD Biosciences, San Jose, Calif.)."}, "[3]": {"system": "LAG3 expression on human Pan-T cells", "test": "LAG3 expression on primary T cells activated with anti-CD3/anti-CD28 beads (flow cytometry)", "type": "cell-based", "method": "as §1"}, "[4]": {"system": "phospho-eIF4E", "test": "eIF4E phosphorylation in TMD8 cells (Western blot)", "type": "cell-based, human", "method": "The ability of MNK-specific inhibitor compounds to regulate the level of HLA class II proteins was evaluated in a diffuse large B-cell lymphoma (DLBCL) cell line, TMD8. Briefly, human DLBCL cell line TMD8 (ATCC), was cultured in RPMI media supplemented with penicillin G (100 U/ml), streptomycin (100 μg/ml), and 10% FBS in a humidified atmosphere of 5% CO2 maintained at 37° C. About 2-4×10^6 TMD8 cells were seeded in 10 cm plates 24 hours prior to drug treatment. The following day, cells were treated with either vehicle control (DMSO) or Compound 107 at the indicated concentration (FIG. 7). Cells were harvested 48 hours post-treatment.\nTreated cells were harvested, washed with PBS and lysed in 1×RIPA buffer (Thermo Fisher) for 15 minutes at 4° C. Lysates were clarified by centrifugation for 15 min at 14,000×rpm and supernatants were collected. Protein concentration in the soluble fraction was determined using the BCA protein assay (Thermo Scientific). Proteins were resolved on 4-20% Bis-Tris gradient polyacrylamide gel (Invitrogen) and transferred to nitrocellulose membrane. […] The blots were washed, scanned, and specific proteins detected using the LI-COR Odyssey infrared imager. […]"}, "[5]": {"details": "primary T cells, anti-CD3/anti-CD28 beads, 0.01-10 μM"}}, "data": [{"smiles": "Cc1cc(Nc2cc(N)ncn2)c(=O)n2c1C(=O)NC21CCCCC1.Cl", "note": "[Compound 107]", "values": [{"measurement": "average TE:Treg ratio", "setting": "[1]", "value": 9.7}, {"measurement": "maximum inhibition of PD-1 expression", "setting": "[2]; T cells activated with anti-CD3/anti-CD28 beads, 10 μM, 48 hours", "value": 76, "unit": "%"}, {"measurement": "PD-1 expression", "setting": "[2]; [5]", "value": "reduced in a dose dependent manner"}, {"measurement": "reduction in the expression of LAG3", "setting": "[3]; CD3/CD28 antibody bead activated T cells, 10 μM", "value": 62, "unit": "%"}, {"measurement": "LAG3 expression", "setting": "[3]; [5]", "value": "reduced in a dose dependent manner"}, {"measurement": "phosphorylation of eIF4E", "setting": "[4]", "value": "potently inhibited"}]}]}
